Laboratory results: US9290529B2, “Carbonic anhydrase inhibitors and method of their production” (USTAV ORGANICKE CHEMIE A BIOCHEMIE AKADEMIE VED CESKE …, priority 2011, dated 2016)
Like-named read-outs stand apart in the source and are kept apart here.

Legend:
[1] = system: K562-TAX; assay: MTT cytotoxicity assay, K562-TAX; format: cell-based, human; conditions: 72 h
Description: (§1) One of the parameters used as the basis for colorimetric assays is the metabolic activity of viable cells. For example, a microtiter assay which uses the tetrazolium salt MTT is now widely used to quantitate cell proliferation and cytotoxicity (Hájduch et al., Cytotechnology, 19, 1996, 243-245). For instance, this assay is used in drug screening programs and in chemosensitivity testing. Because tetrazolium salts are cleaved only by metabolically active cells, these assays exclusively detect viable cells. In the case of the MTT assay, yellow soluble tetrazolium salt is reduced to a coloured water-insoluble formazan salt. After it is solubilized, the formazan formed can easily and rapidly be quantified in a conventional ELISA plate reader at 570 nm (maximum absorbancy). The quantity of reduced formazan corresponds to the number of vital cells in the culture.
(§2) All cells were purchased from the […] (ATCC), unless otherwise indicated: the CEM line are highly chemosensitive T-lymphoblastic leukemia cells, K562 cells were derived from patient with […] with bcr-abl translocation, A549 line is lung adenocarcinoma, HCT116 is colorectal tumor cell line and its p53 gene knock-down counterpart (HCT116p53−) is a model of human cancers with p53 mutation frequently associated with poor prognosis. The daunorubicin resistant subline of CEM cells (CEM-DNR bulk) and paclitaxel resistant subline K562-tax were selected in our laboratory by the cultivation of maternal cell lines in increasing concentrations of daunorubicine or paclitaxel, respectively (Noskova et al., Neoplasma 49, 2002, 418). The CEM-DNR bulk cells overexpress MRP-1 protein, while K562-tax cells overexpress P-glycoprotein, both proteins belong to family of ABC transporters and are involved in primary and/or acquired multidrug resistance phenomenon (Noskova et al., Neoplasma 49, 2002, 418). The cells were maintained in Nunc/Corning 80 cm^2 plastic tissue culture flasks and cultured in cell culture medium (DMEM/RPMI 1640 with 5 g/l glucose, 2 mM glutamine, 100 U/ml penicillin, 100 μg/ml streptomycin, 10% fetal calf serum, and NaHCO3).
(§3) This assay was performed according to Hajduch et al., Anti-Cancer Drugs 10, 1997, 1007. Cell suspensions were prepared and diluted according to the particular cell type and the expected target cell density (2 500-30 000 cells/well based on cell growth characteristics). Cells were added by pipette (80 μl) into 96-well microtiter plates. Inoculates were allowed a pre-incubation period of 24 h at 37° C. and 5% CO2 for stabilization. Four-fold dilutions, in 20-μl aliquots, of the intended test concentration were added to the microtiter plate wells at time zero. All test compound concentrations were examined in duplicate. Incubation of the cells with the test compounds lasted for 72 h at 37° C., in a 5% CO2 atmosphere at 100% humidity. At the end of the incubation period, the cells were assayed using MTT. Aliquots (10 μl) of the MTT stock solution were pipetted into each well and incubated for a further 1-4 h. After this incubation period the formazan produced was dissolved by the addition of 100 μl/well of 10% aq SDS (pH=5.5), followed by a further incubation at 37° C. overnight. The optical density (OD) was measured at 540 nm with a Labsystem iEMS Reader MF. Tumor cell survival (TCS) was calculated using the following equation: TCS=(ODdrug-exposed well/mean ODcontrol wells)×100%. The TCS50 value, the drug concentration lethal to 50% of the tumor cells, was calculated from appropriate dose-response curves.

[2] = system: K562; assay: MTT cytotoxicity assay, K562; format: cell-based, human; conditions: 72 h
Description: as §1, §2, §3

[3] = biological target: T1, human carbonic anhydrase II (hCA II) (Homo sapiens, UniProt P00918); assay: Colorimetric carbonic anhydrase inhibition assay (CO2 hydration, phenol red), hCA II; format: biochemical; conditions: 0° C., HEPES pH 7.0
T1 construct: purchased Sigma Aldrich C6165
Protocol: (§4) The compounds were assayed for inhibition activity of two isoforms of human carbonic anhydrase: hCA II and hCA IX. The human carbonic anhydrase II (HCA II) was purchased from Sigma Aldrich (Cat. No. C6165) in the form of lyophilized protein, which was dissolved before use in 10 mmol·l^−1 HEPES pH 7.0 to a concentration of 300 μmol·l^−1 and further diluted as required. Human carbonic anhydrase IX (HCA IX) was prepared by recombinant expression system in insect (Drosophila expression system, Invitrogen). […] This protein was further purified from media by chelating chromatography carrier His-Select Nickel Affinity Gel (Sigma, Cat No. P6611) and gel chromatography (Superdex 200 GL 30/300, GE Healthcare) according to the manufacturer's recommendations.
(§5) The principle of the method is based on measuring the rate of acidification of the solution that is observed as the color-shift of the acid-base-indicator (fenol red). The reaction was conducted in a glass tube placed in an ice bath (0° C., all stock solutions and enzymes were kept at the same temperature). […] This was followed by a CO2 saturation (stream flow 50 ml/min.) using a needle (18 G) up to color transition of fenol-red from red to yellow (typically 60 seconds by default). […] End point of reaction was determined by visual comparison with reference tube containing acid-base indicator (0.01% (wt./vol.) Fenol-red) and the pH adjusted to 7.0. […] Molar activity was calculated according to the formula:
(§6) [formula] where tB is the time of negative control without enzyme and tS is the time measured with an enzyme sample (and inhibitor), nprot is the number of moles of protein present in the sample. The value of IC50 for the inhibitor concentration corresponds inhibitor contraction required to decrease the specific activity to half of the value of non-inhibited enzyme. Selectivity towards CA IX inhibitor was calculated as the ratio of IC50 values for inhibition of HCA II against the value of IC50 for inhibition CA IX enzyme.

[4] = biological target: T2, human carbonic anhydrase IX (hCA IX) (Homo sapiens, UniProt Q16790); assay: Colorimetric carbonic anhydrase inhibition assay (CO2 hydration, phenol red), hCA IX; format: biochemical; conditions: for Selectivity to hCA IX IC50 (hCA II)/IC50 (hCA IX): ratio of IC50 values
T2 construct: Construct contained the extracellular CA domain (amino acid residues 139-390) cloned into the pMT/BiP/V5-His vector; His tag (from vector pMT/BiP/V5-His) (C); BiP secretion signal (from vector pMT/BiP/V5-His) (N); made in house; host or cells: Drosophila expression system (Invitrogen), insect cells, secreted into SF 900 II medium
Protocol: as §4, §5, §6

[5] = Orientational pharmacokinetics, serum concentrations by HPLC; conditions: intraperitoneally at the MTD, female NMRI mice
Protocol: The ability of compounds to achieve therapeutically relevant concentrations in biological fluids was tested in orientational pharmacokinetics experiment. […] The blood was collected on ice and processed for serum separation within 60 minutes after sampling. Serum was evaporated to dryness on a device ThermoScientific SPD SpeedVac (72 h, 50° C.) until analyzed. Residues were precipitated by the 225 μl of acetonitrile with an addition of 25 μl of 10% SDS (w/w in water), then vortexed for 5 min and centrifuged 5 min at 14000 RPM at a room temperature. Aliquot of the supernatant was transferred into a 250 μl autosampler vial. […] Sensitivity range 0.2 or 0.02 A.U.F.S. (Absorbance Units Full Scale). An Ion-pair reverse phase chromatographic method with an isocratic elution 300 μl/min was used. Sample injection: 20 μl.

[6] = system: NMRI female mice; assay: Dose finding study (MTD, DLT), single intraperitoneal dose; conditions: for dose limiting toxicity (DLT): mouse, in vivo, ip; for maximum tolerated dose (MTD): single dose, intraperitoneally, NMRI female mice
Protocol: Both compounds were dissolved in 10% dimethylsulfoxide/water (vol/vol) at stock concentration of 10 mg/ml and applied intraperitoneally to NMRI female mice (minimum 3/group) in ascending doses until the MTD was reached. Animals were housed in specific pathogen free conditions, water and food ad libitum.

[7] = 0° C., HEPES pH 7.0, recombinant extracellular CA domain, read-out: IC50 (hCA IX)
[8] = reference value in legend of FIG. 34, read-out: IC 50 CAIX (figure legend)

Row | Substance | IC50 [1] [µM] | IC50 [2] [µM] | IC50 [3] [µM] | IC50 [4, 7] [µM] | Selectivity to hCA IX IC50 (hCA II)/IC50 (hCA IX) [4] | T1/2 [5] [h] | pharmacokinetics under in vivo conditions [5] | dose limiting toxicity (DLT) [6] | maximum tolerated dose (MTD) [6] [mg/kg] | IC50 [4, 8] [µM]
1 | 1-methylenesulfamide-1,7-dicarba-closo-dodecaborane [CB-19] | 86.7 ± 12.7 | 81 ± 3.3 | 8.9 | 2 | 4.45 | – | – | – | – | –
2 | Di(methylenesulfamide)-1,7-dicarba-closo-dodecaborane [CB-20] | 96.3 ± 5.8 | – | 1.6 | 0.49 | 3.27 | – | – | – | – | –
3 | 1-methylenesulfamide-9-phenyl-1,2-dicarba-closo-dodecaborane and 1-methylene-sulfamide-12-phenyl-1,2-dicarba-closo-dodecaborane [CB-8] | 79.6 ± 10.9 | 71.3 ± 4.2 | 2.44 | 0.37 | 6.59 | – | – | – | – | –
4 | 8-methylensulfamide-8″-methoxy-3,3′-commo-bis(1,2-dicarba-3-cobalta(III)-closo-dodecabor)ate (1-) [CB-4] | 55.2 ± 4.7 | 74.3 ± 3.7 | 5 | 0.05 | 100 | 6.5 | linear pharmacokinetics | somnolence, apathy and local irritation | 125 | 0.05
5 | 8-butyloxysulfamide-3,3′-commo-bis(decahydro-1,2-dicarba-3-cobalta(III)-closo-dodekabor)ate (1-) [CB-16] | 95.8 ± 4.4 | – | 0.68 | 0.28 | 2.43 | 5 | linear pharmacokinetics | somnolence, apathy and local irritation | 166 | 0.28
6 | 1-methylensulfamide-1,2-dicarba-closo-dodekaborane [CB-1] | 81.5 ± 11 | 60.1 ± 3 | 2.4 | 0.37 | – | – | – | – | – | –
7 | 10-sulfamide-9′-amine-2,2′-commo-(1,7,10-tricarba-1′,7′,9′-tricarba-2-ferra (II)-closo-dodekabor)ane [CB-10] | 73.6 ± 11.1 | – | 67.9 | 9.68 | 7.0 | – | – | – | – | –
8 | 8-propylenesulfamide-7-phenyl-(7,8-nido-dicarbaundecabor)ate (1-) [CB-13] | 64.2 ± 4.5 | 71.8 ± 1.4 | 4 | 0.08 | 48.8 | – | – | – | – | –
9 | 8-ethylaminomethylsulfamide-8″-methoxy-3,3′-commo-bis(decahydro-1,2-dicarba-3-cobalta(III)-closo-dodecabor)ate (1-) [CB-15] | 16.6 ± 1.2 | 17.7 ± 0.7 | 14 | 2 | 7.00 | – | – | – | – | –
10 | 1-methylenesulfamide-3,3′-commo-bis(1,2-dicarba-3-cobalta(III)-closo-dodecabor)ate (1-) [CB-5] | 66.4 ± 8 | – | 3.7 | 0.04 | 92.5 | – | – | – | – | –
11 | 7-methylensulfamide-8-phenyl-(7,8-nido-dikarbaundekabor)ate (1-) [CB-6] | 56.9 ± 15.1 | 27.5 ± 7.1 | 39.1 | 1.08 | 36.2 | – | – | – | – | –
12 | 7-methylensulfamide-(7,8-nido-dicarbaundekaborate) (1-) [CB-2] | 99.9 ± 0.2 | ≥ 100 | 4.6 | 2.6 | – | – | – | – | – | –
13 | 8-diethyleneoxysulfamide-3,3′-commo-bis(decahydro-1,2-dicarba-3-cobalta(III)-closo-dodekabor)ate (1-) [CB-17] | ≥ 100 | ≥ 100 | 12 | 0.35 | 34.3 | – | – | – | – | –
14 | 9-sulfamide-9′-amine-2,2′-commo-bis(1,7,9-trikarba-2-ferra(II)-kloso-dodekabor)ane [CB-12] | ≥ 100 | ≥ 100 | 14.9 | 1.49 | 10.0 | – | – | – | – | –
15 | 1-sulfamide-closo-1-carbadodecaborate (1-) [CB-3] | ≥ 100 | ≥ 100 | – | 3.6 | – | – | – | – | – | –
